Key:
Assay in all cases: biochemical
Settings in all cases: read-out: %Ctrl @ 1000nM
[1] = target: ABL1(H396P)-phosphorylated (Homo sapiens, UniProt P00519, H396P)
ABL1-nonphosphorylated = ABL1-nonphosphorylated (Homo sapiens, UniProt P00519)
ASK1 = target: T1, ASK1 (Homo sapiens, UniProt Q99683)
T1 construct: gene MAP3K5

BRK = target: T2, BRK (Homo sapiens, UniProt Q13882)
T2 construct: gene PTK6

CAMKK1 = CAMKK1 (Homo sapiens, UniProt Q8N5S9)
CSK = CSK (Homo sapiens, UniProt P41240)
CSNK1A1L = CSNK1A1L (Homo sapiens, UniProt Q8N752)
CSNK1A1L, sequence (Q8N752 whole entry): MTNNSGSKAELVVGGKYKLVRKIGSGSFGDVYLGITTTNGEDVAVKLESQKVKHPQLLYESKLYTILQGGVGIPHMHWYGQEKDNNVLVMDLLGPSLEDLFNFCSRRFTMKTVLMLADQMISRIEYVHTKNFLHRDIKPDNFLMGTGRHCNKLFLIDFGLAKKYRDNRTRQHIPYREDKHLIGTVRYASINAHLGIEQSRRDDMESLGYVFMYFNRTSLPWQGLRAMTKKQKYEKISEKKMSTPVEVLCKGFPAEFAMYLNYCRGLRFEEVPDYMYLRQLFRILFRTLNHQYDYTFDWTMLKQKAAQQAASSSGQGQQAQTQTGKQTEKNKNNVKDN

DCAMKL2 = target: T3, DCAMKL2 (Homo sapiens, UniProt Q8N568)
T3 construct: gene DCLK2
T3 sequence (Q8N568 whole entry): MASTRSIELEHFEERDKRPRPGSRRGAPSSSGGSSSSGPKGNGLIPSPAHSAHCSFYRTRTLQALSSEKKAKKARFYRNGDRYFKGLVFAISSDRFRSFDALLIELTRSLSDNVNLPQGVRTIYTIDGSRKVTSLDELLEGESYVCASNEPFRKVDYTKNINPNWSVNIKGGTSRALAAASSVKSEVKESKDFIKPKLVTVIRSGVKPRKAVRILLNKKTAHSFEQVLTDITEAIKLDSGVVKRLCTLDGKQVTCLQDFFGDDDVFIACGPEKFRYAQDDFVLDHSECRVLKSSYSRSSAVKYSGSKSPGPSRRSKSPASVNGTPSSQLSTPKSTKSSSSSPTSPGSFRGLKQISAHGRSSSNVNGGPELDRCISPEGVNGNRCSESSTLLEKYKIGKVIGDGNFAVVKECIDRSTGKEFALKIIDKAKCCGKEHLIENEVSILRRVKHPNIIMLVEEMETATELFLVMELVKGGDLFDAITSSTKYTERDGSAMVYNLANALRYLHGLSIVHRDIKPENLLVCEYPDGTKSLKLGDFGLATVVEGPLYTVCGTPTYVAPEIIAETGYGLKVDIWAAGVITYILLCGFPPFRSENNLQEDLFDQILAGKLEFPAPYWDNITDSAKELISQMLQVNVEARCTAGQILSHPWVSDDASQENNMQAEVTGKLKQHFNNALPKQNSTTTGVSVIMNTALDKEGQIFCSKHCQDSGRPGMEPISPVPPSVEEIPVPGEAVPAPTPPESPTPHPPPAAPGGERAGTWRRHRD

EPHB4 = EPHB4 (Homo sapiens, UniProt P54760)
EPHB6 = EPHB6 (Homo sapiens, UniProt O15197)
ERK8 = target: T4, ERK8 (Homo sapiens, UniProt Q8TD08)
T4 construct: gene MAPK15

FLT3(D835Y) = FLT3(D835Y) (Homo sapiens, UniProt P36888, D835Y)
FLT3(R834Q) = FLT3(R834Q) (Homo sapiens, UniProt P36888, R834Q)
FYN = FYN (Homo sapiens, UniProt P06241)
GRK2 = GRK2 (Homo sapiens, UniProt P25098)
GRK2, sequence (P25098 whole entry): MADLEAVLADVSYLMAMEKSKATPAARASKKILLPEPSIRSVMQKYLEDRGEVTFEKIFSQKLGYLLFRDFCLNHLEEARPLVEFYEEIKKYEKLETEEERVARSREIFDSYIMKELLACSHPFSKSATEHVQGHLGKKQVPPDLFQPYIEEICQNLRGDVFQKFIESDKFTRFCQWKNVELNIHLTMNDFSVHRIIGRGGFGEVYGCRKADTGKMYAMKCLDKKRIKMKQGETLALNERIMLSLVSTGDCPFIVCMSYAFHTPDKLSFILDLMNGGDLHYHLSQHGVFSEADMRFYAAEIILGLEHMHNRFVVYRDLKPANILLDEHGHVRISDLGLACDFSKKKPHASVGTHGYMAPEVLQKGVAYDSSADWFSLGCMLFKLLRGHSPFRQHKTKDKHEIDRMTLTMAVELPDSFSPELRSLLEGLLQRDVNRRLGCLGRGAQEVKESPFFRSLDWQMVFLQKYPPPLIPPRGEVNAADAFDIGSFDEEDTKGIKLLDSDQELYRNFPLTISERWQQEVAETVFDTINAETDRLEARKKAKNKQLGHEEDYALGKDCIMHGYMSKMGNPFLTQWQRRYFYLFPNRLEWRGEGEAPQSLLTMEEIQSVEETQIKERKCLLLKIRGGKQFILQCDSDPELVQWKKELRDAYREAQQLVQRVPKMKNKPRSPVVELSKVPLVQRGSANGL

HIPK3 = HIPK3 (Homo sapiens, UniProt Q9H422)
HIPK3, sequence (Q9H422 whole entry): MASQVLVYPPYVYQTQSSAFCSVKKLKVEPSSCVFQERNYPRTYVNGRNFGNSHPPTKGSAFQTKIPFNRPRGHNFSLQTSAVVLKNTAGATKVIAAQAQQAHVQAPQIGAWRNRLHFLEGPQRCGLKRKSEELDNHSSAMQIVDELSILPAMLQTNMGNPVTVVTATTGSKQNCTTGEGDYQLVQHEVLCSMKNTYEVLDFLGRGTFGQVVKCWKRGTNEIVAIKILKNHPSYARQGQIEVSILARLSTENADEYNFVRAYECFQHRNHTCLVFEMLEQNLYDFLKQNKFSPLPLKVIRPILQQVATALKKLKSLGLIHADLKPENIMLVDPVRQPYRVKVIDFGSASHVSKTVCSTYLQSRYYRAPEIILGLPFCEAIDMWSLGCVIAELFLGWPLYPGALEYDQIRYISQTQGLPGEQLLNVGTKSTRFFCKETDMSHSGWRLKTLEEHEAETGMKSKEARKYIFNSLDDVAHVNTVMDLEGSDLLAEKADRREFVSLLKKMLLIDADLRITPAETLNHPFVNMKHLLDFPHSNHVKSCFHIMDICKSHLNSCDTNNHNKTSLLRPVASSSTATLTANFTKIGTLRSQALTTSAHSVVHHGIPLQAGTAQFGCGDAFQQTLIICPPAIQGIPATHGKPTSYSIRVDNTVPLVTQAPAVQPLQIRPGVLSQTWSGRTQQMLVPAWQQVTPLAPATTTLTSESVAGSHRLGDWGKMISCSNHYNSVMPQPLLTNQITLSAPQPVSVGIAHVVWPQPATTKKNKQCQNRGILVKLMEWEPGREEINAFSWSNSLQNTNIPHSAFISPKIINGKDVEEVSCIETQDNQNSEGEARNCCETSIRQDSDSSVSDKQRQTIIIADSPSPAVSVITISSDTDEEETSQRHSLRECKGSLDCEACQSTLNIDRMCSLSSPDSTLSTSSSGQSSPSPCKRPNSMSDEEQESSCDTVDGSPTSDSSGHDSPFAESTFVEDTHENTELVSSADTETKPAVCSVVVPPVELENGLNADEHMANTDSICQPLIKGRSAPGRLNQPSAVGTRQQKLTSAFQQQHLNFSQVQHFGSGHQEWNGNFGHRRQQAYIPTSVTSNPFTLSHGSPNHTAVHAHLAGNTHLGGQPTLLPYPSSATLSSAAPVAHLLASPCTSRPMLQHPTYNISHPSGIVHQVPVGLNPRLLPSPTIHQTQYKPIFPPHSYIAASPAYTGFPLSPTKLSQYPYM

LATS2 = LATS2 (Homo sapiens, UniProt Q9NRM7)
LCK = LCK (Homo sapiens, UniProt P06239)
LOK = target: T5, LOK (Homo sapiens, UniProt O94804)
T5 construct: gene STK10

MAPKAPK5 = MAPKAPK5 (Homo sapiens, UniProt Q8IW41)
MAPKAPK5, sequence (Q8IW41 whole entry): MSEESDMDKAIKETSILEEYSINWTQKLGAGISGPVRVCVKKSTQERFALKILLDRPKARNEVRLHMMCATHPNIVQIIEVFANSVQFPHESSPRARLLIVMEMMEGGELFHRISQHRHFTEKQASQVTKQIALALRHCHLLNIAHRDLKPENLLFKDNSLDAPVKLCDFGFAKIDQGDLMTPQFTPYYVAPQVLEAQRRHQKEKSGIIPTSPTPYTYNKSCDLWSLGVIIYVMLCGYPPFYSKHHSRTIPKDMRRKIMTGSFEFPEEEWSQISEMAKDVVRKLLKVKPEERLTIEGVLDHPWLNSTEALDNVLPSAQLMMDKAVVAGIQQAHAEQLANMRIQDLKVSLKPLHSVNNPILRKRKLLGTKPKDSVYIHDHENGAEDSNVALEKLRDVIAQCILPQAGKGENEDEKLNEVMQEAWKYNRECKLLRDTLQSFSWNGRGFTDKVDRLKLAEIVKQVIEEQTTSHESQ

MARK3 = MARK3 (Homo sapiens, UniProt P27448)
MYLK2 = MYLK2 (Homo sapiens, UniProt Q9H1R3)
MYLK4 = MYLK4 (Homo sapiens, UniProt Q86YV6)
MYLK4, sequence (Q86YV6 whole entry): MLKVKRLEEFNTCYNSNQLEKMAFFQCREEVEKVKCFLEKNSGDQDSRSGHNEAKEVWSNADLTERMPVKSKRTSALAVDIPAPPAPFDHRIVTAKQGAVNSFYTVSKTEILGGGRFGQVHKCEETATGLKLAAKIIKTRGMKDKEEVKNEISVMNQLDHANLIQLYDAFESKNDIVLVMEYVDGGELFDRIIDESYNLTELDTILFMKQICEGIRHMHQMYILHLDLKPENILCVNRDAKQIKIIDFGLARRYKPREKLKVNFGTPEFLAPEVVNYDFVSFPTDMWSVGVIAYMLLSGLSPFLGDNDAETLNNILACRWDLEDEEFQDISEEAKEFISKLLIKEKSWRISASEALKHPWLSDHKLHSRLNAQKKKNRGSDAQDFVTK

NEK1 = NEK1 (Homo sapiens, UniProt Q96PY6)
NEK10 = NEK10 (Homo sapiens, UniProt Q6ZWH5)
NEK2 = NEK2 (Homo sapiens, UniProt P51955)
NEK3 = NEK3 (Homo sapiens, UniProt P51956)
PAK3 = PAK3 (Homo sapiens, UniProt O75914)
PKN1 = PKN1 (Homo sapiens, UniProt Q16512)
PRKD3 = PRKD3 (Homo sapiens, UniProt O94806)
PRKX = PRKX (Homo sapiens, UniProt P51817)
RIPK1 = RIPK1 (Homo sapiens, UniProt Q13546)
SGK2 = SGK2 (Homo sapiens, UniProt Q9HBY8)
SRMS = SRMS (Homo sapiens, UniProt Q9H3Y6)
TEC = TEC (Homo sapiens, UniProt P42680)
p38-alpha = target: T6, p38-alpha (Homo sapiens, UniProt Q16539)
T6 construct: gene MAPK14

CSK, sequence (P41240 whole entry): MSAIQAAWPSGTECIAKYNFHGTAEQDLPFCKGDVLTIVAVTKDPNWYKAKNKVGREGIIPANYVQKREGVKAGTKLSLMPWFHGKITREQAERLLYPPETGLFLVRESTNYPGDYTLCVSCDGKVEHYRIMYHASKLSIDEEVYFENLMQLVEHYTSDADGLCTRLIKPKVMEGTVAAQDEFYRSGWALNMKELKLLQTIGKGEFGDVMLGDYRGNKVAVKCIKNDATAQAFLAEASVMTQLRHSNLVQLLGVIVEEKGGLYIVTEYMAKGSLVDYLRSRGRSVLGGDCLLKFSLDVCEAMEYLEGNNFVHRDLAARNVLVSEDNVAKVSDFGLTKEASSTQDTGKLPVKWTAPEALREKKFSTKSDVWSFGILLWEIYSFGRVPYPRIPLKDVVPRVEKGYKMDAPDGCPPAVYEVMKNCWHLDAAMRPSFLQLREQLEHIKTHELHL
T2 sequence (Q13882 whole entry): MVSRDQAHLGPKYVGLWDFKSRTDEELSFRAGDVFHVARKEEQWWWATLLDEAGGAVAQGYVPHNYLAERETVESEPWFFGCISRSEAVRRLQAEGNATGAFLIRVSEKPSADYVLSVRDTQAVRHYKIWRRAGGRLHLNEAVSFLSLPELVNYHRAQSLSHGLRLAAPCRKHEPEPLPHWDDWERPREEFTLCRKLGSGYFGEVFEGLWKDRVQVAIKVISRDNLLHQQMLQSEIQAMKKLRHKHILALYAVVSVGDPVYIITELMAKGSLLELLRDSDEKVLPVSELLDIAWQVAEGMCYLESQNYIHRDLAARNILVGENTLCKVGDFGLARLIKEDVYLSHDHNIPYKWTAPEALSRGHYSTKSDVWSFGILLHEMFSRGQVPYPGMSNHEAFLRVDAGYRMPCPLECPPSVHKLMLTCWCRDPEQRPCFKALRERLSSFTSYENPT

For `Cc1cn(-c2cc(NC(=O)c3ccc4c(c3)CN(c3cncnc3)C[C@@H]4C)cc(C(F)(F)F)c2)cn1` [Compound 6j], the remaining activity at 1 µM [1] was 100%, the remaining activity at 1 µM (ABL1-nonphosphorylated) was 13% and the remaining activity at 1 µM (ASK1) was 92%. For the same molecule, the remaining activity at 1 µM (BRK) was 84%, the remaining activity at 1 µM (CAMKK1) was 64% and the remaining activity at 1 µM (CSK) was 92%. The remaining activity at 1 µM (CSNK1A1L) was 69%, the remaining activity at 1 µM (DCAMKL2) was 100% and the remaining activity at 1 µM (EPHB4) was 76%. It also gave a remaining activity at 1 µM (EPHB6) of 100%, a remaining activity at 1 µM (ERK8) of 84% and a remaining activity at 1 µM (FLT3(D835Y)) of 40%. The remaining activity at 1 µM (FLT3(R834Q)) was 86%, the remaining activity at 1 µM (FYN) was 69% and the remaining activity at 1 µM (GRK2) was 96%. The remaining activity at 1 µM (HIPK3) was 86%, the remaining activity at 1 µM (LATS2) was 100% and the remaining activity at 1 µM (LCK) was 74%. It also gave a remaining activity at 1 µM (LOK) of 72%, a remaining activity at 1 µM (MAPKAPK5) of 100% and a remaining activity at 1 µM (MARK3) of 94%. It also gave a remaining activity at 1 µM (MYLK2) of 100%, a remaining activity at 1 µM (MYLK4) of 100% and a remaining activity at 1 µM (NEK1) of 100%. It also gave a remaining activity at 1 µM (NEK10) of 100%, a remaining activity at 1 µM (NEK2) of 95% and a remaining activity at 1 µM (NEK3) of 94%. For the same molecule, the remaining activity at 1 µM (PAK3) was 79%, the remaining activity at 1 µM (PKN1) was 100% and the remaining activity at 1 µM (PRKD3) was 100%. For the same molecule, the remaining activity at 1 µM (PRKX) was 96%, the remaining activity at 1 µM (RIPK1) was 98% and the remaining activity at 1 µM (SGK2) was 100%. For the same molecule, the remaining activity at 1 µM (SRMS) was 100%, the remaining activity at 1 µM (TEC) was 96% and the remaining activity at 1 µM (p38-alpha) was 62%.

From paper PMC5053573, “Structure-Based Design of Tetrahydroisoquinoline-7-carboxamides as Selective Discoidin Domain Receptor 1 (DDR1) Inhibitors” (Journal of Medicinal Chemistry, 2016)
